Results taken from the supplement of paper PMC10307832.

Key:
Test in all cases: relative viability (nuclei count vs DMSO), 5 days (fraction); higher = more cells survive
[1] = compound: CCc1c2c(nc3ccc(OC(=O)N4CCC(N5CCCCC5)CC4)cc13)-c1cc3c(c(=O)n1C2)COC(=O)[C@]3(O)CC [Irinotecan] + COc1cccc2cc(-c3nc([C@H]4CC[C@H](C(=O)O)CC4)n4ncnc(N)c34)[nH]c12 [OSI-027] (partner 0.5 µM)
Method in brief: (§1)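 Relative viability equals treated-well nuclei counts divided by vehicle-well nuclei counts. Counts came from 4× images of lung cancer cell lines grown in 1536-well plates for 5 days after pin-tool dosing on the day after seeding. Dosing used one drug alone or a fixed anchor-drug dose plus five library-drug doses (not always all listed) in √10 steps, and values are medians of duplicate plates.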

[2] = compound: CC[C@@H](C)CNCC(=O)N1CCC2=C([C@@H]1COC3=CC=CC(=C3)C)C=CS2 [RU-SKI 43] + COc1cccc2cc(-c3nc([C@H]4CC[C@H](C(=O)O)CC4)n4ncnc(N)c34)[nH]c12 [OSI-027] (partner 0.5 µM)
Method in brief: as §1

[3] = compound: CC[C@@H](C)CNCC(=O)N1CCC2=C([C@@H]1COC3=CC=CC(=C3)C)C=CS2 [RU-SKI 43] + O=C(CCCCCCC(=O)Nc1ccccc1)NO [Vorinostat] (partner 1 µM)
Method in brief: as §1

[4] = compound: Cn1cc(-c2cnc3ccc4ccc(CS(=O)(=O)NCc5ccccn5)cc4c(=O)c3c2)cn1 [MK-8033] + Cc1nc(NC(=O)N2CCC[C@H]2C(N)=O)sc1-c1ccnc(C(C)(C)C(F)(F)F)c1 [Alpelisib] (partner 2 µM)
Method in brief: as §1

Cell Line	relative viability ([1]; first compound 0.6325 µM)	relative viability ([1]; first compound 2 µM)	relative viability ([1]; first compound 6.325 µM)	relative viability ([1]; first compound 20 µM)	relative viability ([2]; first compound 0.1 µM)	relative viability ([2]; first compound 0.3162 µM)	relative viability ([2]; first compound 1 µM)	relative viability ([2]; first compound 3.162 µM)	relative viability ([2]; first compound 10 µM)	relative viability ([3]; first compound 0.1 µM)	relative viability ([3]; first compound 0.3162 µM)	relative viability ([3]; first compound 1 µM)	relative viability ([3]; first compound 3.162 µM)	relative viability ([3]; first compound 10 µM)	relative viability ([4]; first compound 0.02 µM)	relative viability ([4]; first compound 0.06325 µM)	relative viability ([4]; first compound 0.2 µM)	relative viability ([4]; first compound 0.6325 µM)	relative viability ([4]; first compound 2 µM)
NCI-H1975	0.558	0.694	0.439	0.137	0.749	0.829	1.02	0.779	0.604	0.736	0.781	0.749	0.723	0.618	0.604	0.557	0.584	0.571	0.649
HARA	0.148	0.186	0.142	0.0795	0.558	0.492	0.578	0.594	0.295	0.568	0.52	0.485	0.517	0.548	0.777	0.742	0.76	0.743	0.871
H3255	0.502	0.445	0.373	0.367	0.543	0.598	0.582	0.607	0.584	0.838	0.763	1.1	0.851	0.769	0.643	0.571	0.562	0.695	0.608
NCI-H727	0.338	0.499	0.391	0.428	0.553	0.642	0.559	0.565	0.455		1.13	1.13	1.08	1.23	0.502	0.615	0.589	0.577	0.589
EKVX	0.664	0.625	0.49	0.162	0.412	0.67	0.725	0.813	0.466	0.658	0.614	0.707	0.643	0.632	0.812	0.747	0.787	0.808	0.903
NCI-H1666	0.792	0.809	0.544	0.26	0.897	0.87	0.85	0.858	0.752	0.953	1.08	1.13	0.997	0.799	0.937	1.01	0.874	0.998	0.942
NCI-H1915	0.303	0.295	0.216	0.346	0.641	0.706	0.703	0.686	0.614	0.563	0.602	0.639	0.54	0.549	1.02	1	1.04	1.11	1.02
HCC-366	0.144	0.714	0.0844	0.0682	0.962	0.94	1.02	0.931	0.452	0.276	0.493	0.439	0.438	0.328	0.409	0.435	0.325	0.376	0.325
EPLC-272H	0.224	0.268	0.165	0.249	0.32	0.222	0.278	0.326	0.282	0.467	0.384	0.426	0.401	0.31	0.91		0.877	0.948	1.02
RERF-LC-KJ	0.364	0.492	0.534	0.112	0.505	0.514	0.603	0.56	0.548	0.695	0.699	0.654	0.702	0.546	0.735	0.76	0.698	0.777	0.774
NCI-H2126		0.601	0.457	0.427	0.681	0.627	0.777	0.678	0.715	0.793	0.864	0.819	0.906	0.781	0.749	0.731	0.763	0.772	0.702
ABC-1		0.494	0.341	0.093	0.541	0.385	0.554	0.52	0.473	0.964	1.08	1.27	1.01	1.16	1.12	1.12	1.15	1.04	1.08
NCI-H1355		0.375	0.269	0.25	0.408	0.378	0.486	0.428	0.442	0.725	0.704	0.645	0.701	0.615	0.766	0.74	0.72	0.87	0.786
A-427		0.315	0.244	0.227	0.471	0.345	0.546	0.507	0.43	0.868	0.823	0.933	0.873	0.786	1.05	1.07	1.03	1.16	1.11
NCI-H3122	1.04	0.649	0.22	0.0566	1.02	1.23	1.31	1.01	0.96	1.06	1.36	1.04	0.467	1.06	0.817	0.755	0.777	0.853	0.859
NCI-H1437	0.797	0.722	0.378	0.184	0.986	0.855	0.865	0.943	0.862	0.839	0.958	0.84	0.798	0.671	0.966	0.905	0.883	0.941	0.956
COR-L23	0.578	0.556	0.179	0.145	0.718	0.99	0.865	0.881	0.614	0.427	0.376	0.532	0.499	0.387	0.71	0.864	0.74	0.828	0.645
